In brackets after ≈: the same amount, converted by molar mass. Values belong to the compound of their own block, whether it stands above or below them.
Tests used:
[1] = Compatibility of co-solvent carrier with hyaluronic acid hydrogel (visually observed turbidity); type: physicochemical; details: solvent added in 200 μl aliquots to 2 ml gel of 20 mg/ml hyaluronic acid in water; maximum added 5 ml
Experimental: Co-solvent systems were prepared by the addition of water miscible organic solvents to a hyaluronic acid (HA) gel containing 20 mg/ml hyaluronic acid in water. The organic solvent was added with stirring in aliquots of 200 μl. After the addition of each aliquot, the mixture was allowed to stir for several minutes and observed for signs of turbidity or rapidly changing viscosity. At the first sign of visually observed turbidity, the volume of organic solvent added was noted and the ratio of co-solvent to water calculated. In the event that turbidity was not observed the maximum amount of solvent added was 5 ml to 2 ml of gel.

[2] = test system: AP-1; details: via reduced AP-1 binding to DNA; cited from earlier work
[3] = test system: normal chondrocytes and non-proliferating synoviocytes; details: cited from earlier work
[4] = physchem; details: aqueous with cosolvent or surfactant or cyclodextrin, thermodynamic from solid
Experimental: After determining suitability in this manner, co-solvent systems may be further assessed in terms of biocompatibility. Solubility was determined as follows:
To a 1 ml aliquot of a co-solvent system described by the ratio of organic solvent to water was added precisely to 5 and 10 mg±10% paclitaxel. The mixtures were equilibrated at room temperature for 16 hours and observed for clarity and particulates in the liquid.

[5] = test system: synoviocytes; details: cited from earlier work
[6] = test system: T-cell; details: cited from earlier work
[7] = test system: neutrophil; details: cited from earlier work
[8] = test system: collagen induced arthritis in an animal model; details: cited from earlier work

SMILES: CCOCCOCCO [Ethoxydiglycol]
- Max. amt. added to HA Gel without turbidity [1]: 2 ml in 2 ml

SMILES: CC(=O)O[C@H]1C(=O)[C@@]2(C)[C@H]([C@H](OC(=O)c3ccccc3)[C@]3(O)C[C@H](OC(=O)[C@H](O)[C@@H](NC(=O)c4ccccc4)c4ccccc4)C(C)=C1C3(C)C)[C@]1(OC(C)=O)CO[C@@H]1C[C@@H]2O [paclitaxel]
- AP-1 transcription activity [2]: inhibits
- toxicity to non-proliferating cells [3]: non-toxic
- solubility at 16 h ([4]; Dimethylsulfoxide:water co-solvent mixture): < 5000 µg/mL
- solubility at 16 h ([4]; Ethanol:water co-solvent mixture): 5000 to 10000 µg/mL (≈ 5.86 to 11.7 mM)
- solubility at 16 h ([4]; Ethoxydiglycol:water co-solvent mixture): < 5000 µg/mL
- solubility at 16 h ([4]; N-methylpyrrolidone:water co-solvent mixture): > 10000 µg/mL
- solubility at 16 h ([4]; PEG 200:water co-solvent mixture): 5000 to 10000 µg/mL (≈ 5.86 to 11.7 mM)
- apoptosis in synoviocytes [5]: induces
- proliferation of synoviocytes [5]: prevents
- T-cell function [6]: inhibits
- T-cell response to stimuli [6]: decreases
- neutrophil activation [7]: inhibits
- collagen induced arthritis [8]: inhibits

The remaining lines, values ahead:

- Max. amt. added to HA Gel without turbidity [1]: >5 ml in 2 ml
SMILES: C[S+](C)[O-] [Dimethylsulfoxide]

- Max. amt. added to HA Gel without turbidity [1]: 4 ml in 2 ml
SMILES: CCO [Ethanol]

- Max. amt. added to HA Gel without turbidity [1]: >5 ml in 2 ml
SMILES: CN1CCCC1=O [N-methylpyrrolidone]

From patent US20070213393A1, “COMPOSITIONS AND METHODS FOR TREATING INFLAMMATORY CONDITIONS UTILIZING PROTEIN OR POLYSACCHARIDE CONTAINING ANTI-MICROTUBULE AGENTS” (ANGIOTECH INTERNATIONAL AG, priority 2001, published 2007)
